{
  "source": "patent US8741929B2",
  "about": "“Methods using 3-(4-amino-1-oxo-1,3-dihydro-isoindol-2-yl)-piperidine-2,6-dione for treatment of mantle cell lymphomas” (Celgene Corporation, priority 2006, dated 2014)",
  "key": {"[1]": {"tested_on": "relapsed and refractory aggressive non-Hodgkin's lymphoma (NHL)", "test": "Phase II study of oral lenalidomide monotherapy in patients", "type": "in vivo, human", "procedure": "A multi-center, open-label, Phase II study was conducted in patients with relapsed and refractory aggressive non-Hodgkin's lymphoma (NHL). […] Patients in the study received lenalidomide in an amount of 25mg orally once daily for days one to 21 in a 28-day cycle and continued therapy for 52 weeks as tolerated or until disease progression.\nTwenty-five patients age 45 to 80 years (median age 63), with relapsed and refractory aggressive NHL, and who had received a median of 2.5 prior treatments (range: 1-6 prior treatments), were administered with lenalidomide in an amount of 25 mg orally once daily for 21 days in the treatment cycle. Sixteen patients with aggressive NHL were evaluable for tumour assessment. Of the 16 patients, eight had diffuse large cell lymphoma, three had mantle cell lymphoma, two patients had follicular lymphoma, one had transformed lymphoma, and two had aggressive lymphoma of unknown histology."}, "[2]": {"tested_on": "relapsed or refractory mantle cell lymphoma (MCL)", "method": "A single-center, open label, phase I/II study was conducted to determine the maximum tolerated dose (MTD) and to evaluate the efficacy of 3-(4-amino-1-oxo-1,3-dihydro-isoindol-2-yl)-piperidin-2,6-dione (lenalidomide or Revlimid®) in combination with rituximab for relapsed or refractory mantle cell lymphoma (MCL). Patients with one to four lines of prior therapy were eligible. Patients with prior treatment using thalidomide or rituximab, regardless of resistance, were eligible. […] A standard phase I dose escalation was used to determine MTD with dose levels at 10 mg, 15 mg, 20 mg, and 25 mg of Revlimid®. Dose-limiting toxicity (DLT) was defined as grade 3 or 4 non-hematologic or grade 4 hematologic toxicity during the first cycle.\nEach cohort had 3 patients. […] The number of cycles given ranged from one to five cycles."}, "[3]": {"details": "25 mg daily, 21/28 days, 16 evaluable patients"}, "[4]": {"details": "25 mg orally once daily days 1-21 of 28-day cycle, 16 evaluable patients"}, "[5]": {"details": "first cycle, + rituximab, number of patients/events"}},
  "note": "Values joined by “and” are separate entries in the source; they are usually repeats but may differ in a detail not shown here. Identical values can stand only once.",
  "data": [
    {"smiles": "Nc1cccc2c1CN(C1CCC(=O)NC1=O)C2=O", "note": "(centres unmarked) [Revlimid®, 3-(4-amino-1-oxo-1,3-dihydro-isoindol-2-yl)-piperidine-2,6-dione]", "values": [
      {"measurement": "complete response", "setting": "[1]; [3]", "value": "One"},
      {"measurement": "partial responses", "setting": "[1]; [3]", "value": "four"},
      {"measurement": "stable disease", "setting": "[1]; [3]", "value": "Four"},
      {"measurement": "Grade 4 adverse reaction", "setting": "[1]; 25 mg daily, 21/28 days, of 22 patients", "value": "three"},
      {"measurement": "Grade 3 and 4 adverse events", "setting": "[1]; 25 mg daily, 21/28 days, predominately haematological and Grade 3", "value": "ten of 22"},
      {"measurement": "objective responses", "setting": "[1]; [4]", "value": "five"},
      {"measurement": "objective responses (rate)", "setting": "[1]; [4]", "value": 31, "unit": "per cent"},
      {"measurement": "disease progression", "setting": "[1]; after a median follow-up of two months (range one to seven months)", "value": "Seven"},
      {"measurement": "progression free survival", "setting": "[1]; one patient with diffuse large cell lymphoma, complete response", "value": "more than 180 days"},
      {"measurement": "progression free survival", "setting": "[1]; one patient with follicular lymphoma, partial response", "value": "more than 55 days"},
      {"measurement": "progression free survival", "setting": "[1]; one patient with mantle cell lymphoma, partial response", "value": "more than 57 days"},
      {"measurement": "progression free survival", "setting": "[1]; single patients with diffuse large cell lymphoma, partial response, listed as lenalidomide", "value": "135 days and 242 days"},
      {"measurement": "stable disease", "setting": "[2]; at cycle 3 and cycle 5, respectively, + rituximab, seven evaluable", "value": "Two"},
      {"measurement": "maximum tolerated dose (MTD)", "setting": "[2]; dose levels up to 20 mg Revlimid + rituximab 375 mg/m^2 weekly", "value": "the MTD has not been reached"},
      {"measurement": "grade 3 toxicity (thrombocytopenia) beyond the first cycle", "setting": "[2]; during cycle 2, + rituximab, number of events", "value": 1},
      {"measurement": "grade 2 anemia", "setting": "[2]; first cycle, + rituximab", "value": "one"},
      {"measurement": "Grade 1 hematologic events: anemia", "setting": "[2]; [5]", "value": 1},
      {"measurement": "Grade 1 hematologic events: leukopenia", "setting": "[2]; [5]", "value": 3},
      {"measurement": "Grade 1 hematologic events: thrombocytopenia", "setting": "[2]; [5]", "value": 2},
      {"measurement": "Grade 1 non-hematologic toxic events: fatigue", "setting": "[2]; [5]", "value": 4},
      {"measurement": "Grade 1 non-hematologic toxic events: myalgias", "setting": "[2]; [5]", "value": 2},
      {"measurement": "Grade 1 non-hematologic toxic events: pruritis", "setting": "[2]; [5]", "value": 3},
      {"measurement": "Grade 1 non-hematologic toxic events: stomatitis", "setting": "[2]; [5]", "value": 3},
      {"measurement": "Grade 2 non-hematologic toxic events: myalgias", "setting": "[2]; [5]", "value": 2},
      {"measurement": "Grade 2 non-hematologic toxic events: rash", "setting": "[2]; [5]", "value": 2},
      {"measurement": "study conclusion on efficacy", "setting": "[2]; particularly relapsed or refractory mantle cell lymphoma", "value": "effective in treating mantle cell lymphoma"}
    ]}
  ]
}
